We go through three molecules from US20240374561A1, “METHOD FOR PREVENTING NITRATION OF TYROSINE RESIDUES IN HEPATOCYTE GROWTH FACTOR USING TRISULFIDE COMPOUND” (KYUSHU UNIVERSITY, NATIONAL UNIVERSITY CORPORATION, priority 2021, published 2024).

The target in series [1] is T1, recombinant mouse HGF (Mus musculus, UniProt Q08048).
T1 construct: purchased R&D Systems 2207-HG-025/CF
Nature of the series: Inhibition of nitration of recombinant HGF protein by peroxynitrite (ONOO-), Western blot with anti-nitrotyrosine antibody. Type of series: biochemical. Conditions: for inhibit nitration of tyrosine residues in HGF: summary statement. Here is the method: GSSSG dihydrate produced by the method described in Patent Literature 1 was added to and mixed with a purified preparation of recombinant mouse HGF (2207-HG-025/CF, manufactured by R&D Systems, carrier free) dissolved in PBS such that the molar ratio of HGF:GSSSG was 1:10, 1:50, or 1:400 to prepare samples. A sample was also prepared in which GSSSG dihydrate was not added and the molar ratio of HGF:GSSSG was 1:0. Peroxynitrite (ONOO^−) was immediately added to each sample such that the molar ratio of HGF:ONOO^− was 1:500. The samples were held at pH 7.2 to 7.4 and 25 to 37° C. for 30 minutes (nitrating treatment) to give nitrated samples.
The obtained nitrated samples were subjected to Western blotting in accordance with a conventional method. The nitrated samples were treated with a solution containing SDS and β-mercaptoethanol to give samples for reduced SDS-PAGE. A 10% polyacrylamide gel was used for electrophoresis. The material of the transfer membrane used was nitrocellulose. HRP-labeled anti-nitrotyrosine monoclonal antibody (catalog number: sc-32757 HRP, manufactured by Santa Cruz Biotechnology) and HRP-labeled anti-HGF monoclonal antibody (catalog number: sc-374422 HRP, manufactured by Santa Cruz Biotechnology) were used. The immune response was recorded on an imaging device using ECL reagents. Nitrated bovine serum albumin (BSAnitro) was used as a positive control sample. PL (Protein Ladder) and MW-STD (Molecular Weight-Standard) in FIG. 1 are molecular weight markers. Further, material A in FIG. 1 means GSSSG.
Nitration treatment and Western blotting were performed in the same manner as in Example 1 except that lipoic acid trisulfide was used instead of GSSSG and the molar ratio of HGF:ONOO was set to 1:4000. In FIG. 1, material B means lipoic acid trisulfide.
For orientation: In western blotting, separated proteins are transferred to a membrane and probed.

Series [2] in a line: Solubility in water at 20° C. The format is physicochemical. Conditions: free lipoic acid trisulfide.

T1 sequence (Q08048 33-728): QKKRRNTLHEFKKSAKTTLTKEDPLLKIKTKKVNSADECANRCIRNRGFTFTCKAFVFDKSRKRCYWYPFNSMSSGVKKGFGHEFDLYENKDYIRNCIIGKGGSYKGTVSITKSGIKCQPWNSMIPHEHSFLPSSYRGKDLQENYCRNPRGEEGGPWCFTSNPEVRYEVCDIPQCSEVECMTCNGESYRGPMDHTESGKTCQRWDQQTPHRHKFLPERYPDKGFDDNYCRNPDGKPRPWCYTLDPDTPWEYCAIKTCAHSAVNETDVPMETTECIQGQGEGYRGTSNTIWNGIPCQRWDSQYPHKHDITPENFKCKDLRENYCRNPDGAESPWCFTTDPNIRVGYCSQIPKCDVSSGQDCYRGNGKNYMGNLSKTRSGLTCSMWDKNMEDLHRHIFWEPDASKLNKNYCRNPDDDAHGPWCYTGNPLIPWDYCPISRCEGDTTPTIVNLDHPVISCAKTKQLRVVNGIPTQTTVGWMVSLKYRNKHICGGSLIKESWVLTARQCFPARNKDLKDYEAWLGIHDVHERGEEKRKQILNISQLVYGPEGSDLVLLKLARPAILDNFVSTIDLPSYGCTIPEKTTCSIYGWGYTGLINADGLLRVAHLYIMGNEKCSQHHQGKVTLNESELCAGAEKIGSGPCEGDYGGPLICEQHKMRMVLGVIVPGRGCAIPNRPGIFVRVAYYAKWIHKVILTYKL

For `N[C@@H](CCC(=O)N[C@@H](CSSSC[C@H](NC(=O)CC[C@H](N)C(=O)O)C(=O)NCC(=O)O)C(=O)NCC(=O)O)C(=O)O` [GSSSG, glutathione trisulfide], the “reaction intensity with the anti-nitrotyrosine antibody (nitration of tyrosine residues in HGF)” value in series [1] (molar ratio HGF:GSSSG 1:0, 1:10, 1:50, 1:400, HGF:ONOO- 1:500, pH 7.2 to 7.4, 25 to 37° C., 30 minutes, FIG. 1) is “decreased with an increase in the molar ratio of GSSSG added”. For the same molecule, the “inhibit nitration of tyrosine residues in HGF” value in series [1] was “in a concentration-dependent manner”.
With `O=C(O)CCCC[C@@H]1CCSSS1` [Lipoic acid trisulfide R body, (R)-lipoic acid trisulfide], the “Lipoic acid trisulfide Solubility” value in series [2] worked out at 300 µg/mL.
Regarding `O=C(O)CCCCC1CCSSS1` (centres unmarked) [lipoic acid trisulfide], the “reaction intensity with the anti-nitrotyrosine antibody (nitration of tyrosine residues in HGF)” value in series [1] (increasing molar ratio of lipoic acid trisulfide, HGF:ONOO 1:4000, otherwise as Example 1, FIG. 2) was “decreased with an increase in the molar ratio of lipoic acid trisulfide added”. For the same molecule, the “inhibit nitration of tyrosine residues in HGF” value in series [1] was “in a concentration-dependent manner”.
